ChEMBL document CHEMBL1137394, “Configurationally restricted bismacrocyclic CXCR4 receptor antagonists” (J Med Chem, 2006)
Activity calls are given as the source filed them. The rule behind the calls is not given here.

Tests used:
MT4 [1] = experiment: Selectivity index, EC50 against HIV1 3B/CC50 against MT4 cells; format: functional, Human immunodeficiency virus 1
[2] = system: Human immunodeficiency virus 2; experiment: Antiviral activity against HIV2 ROD assessed as reduction in cytopathic effect in MT4 cells; format: functional, organism-based; settings: Human immunodeficiency virus 2, ROD
[3] = system: Human immunodeficiency virus 1; experiment: Antiviral activity against HIV1 3B assessed as reduction in cytopathic effect in MT4 cells; format: functional, organism-based; settings: Human immunodeficiency virus 1, 3B
MT4 [4] = experiment: Cytotoxicity against human MT4 cells; format: functional
MT4 [5] = experiment: Selectivity index, EC50 against HIV2 ROD/CC50 against MT4 cells; format: functional, Human immunodeficiency virus 2
[6] = molecular target: C-X-C chemokine receptor type 4 (Homo sapiens) (UniProt P61073); experiment: Binding affinity to CXCR4 by flow cell cytometry; format: functional
Chain of C-X-C chemokine receptor type 4 (Homo sapiens) (P61073 whole entry): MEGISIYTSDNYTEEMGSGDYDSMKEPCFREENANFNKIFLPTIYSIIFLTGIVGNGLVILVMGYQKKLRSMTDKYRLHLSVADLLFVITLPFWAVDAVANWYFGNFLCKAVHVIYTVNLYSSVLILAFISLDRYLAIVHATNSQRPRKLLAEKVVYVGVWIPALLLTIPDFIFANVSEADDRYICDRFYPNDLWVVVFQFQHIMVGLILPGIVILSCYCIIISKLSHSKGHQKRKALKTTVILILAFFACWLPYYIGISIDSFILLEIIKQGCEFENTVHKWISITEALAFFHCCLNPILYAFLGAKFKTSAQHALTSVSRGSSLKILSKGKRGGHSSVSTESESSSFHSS

`c1cc(CN2CCCN3CCN(CCCNCC2)CC3)ccc1CN1CCCN2CCN(CCCNCC1)CC2` gave a Selectivity index (MT4 [1]) of over 32, an EC50 [2] of 23.2 µM and an EC50 [3] of 6.98 µM. The CC50 (MT4 [4]) was over 225 µM, the Selectivity index (MT4 [5]) was over 10 and the Activity [6] was “Active”.
